# Assay results from patent US20140315933A1, “CHEMICAL COMPOUNDS” (Pfizer Limited, priority 2013, published 2014).
# Where a name gives a salt, the structure may show the parent alone.
# Target: T1, URAT-1 transporter (Homo sapiens, UniProt Q96S37)
# T1 construct: expressed in transfected cells
# Experiment: URAT-1 inhibitor activity: [14C]-uric acid uptake into CHO-URAT1(L)GFP#8 (CHO#8) cells, scintillation proximity
# Assay type: cell-based
# Details: not given
# Method in brief: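 Scintillation proximity read-out of 30 nM (final) [14C]-uric acid uptake over three hours at room temperature in chloride-free HEPES buffer pH 7.4. Compounds, 0–10 μM final with 0.25% DMSO, were added 15 minutes before substrate; cells were a clonal CHO line with human URAT1(L)-eGFP, preincubated 1 hour in chloride buffer.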
row,Molecule,IC50
1,"O=S(=O)(Nc1nccs1)c1ccc(Oc2ccc(Cl)cc2C(F)(F)F)c(F)c1 [Example 71, 4-[4-chloro-2-(trifluoromethyl)phenoxy]-3-fluoro-N-(1,3-thiazol-2-yl)benzenesulfonamide]",> 10000 nM
2,"N#Cc1ccc(Oc2cc(F)c(S(=O)(=O)Nc3ncns3)cc2Cl)c(OC(F)F)c1 [Example 155, 5-chloro-4-[4-cyano-2-(difluoromethoxy)phenoxy]-2-fluoro-N-(1,2,4-thiadiazol-5-yl)benzenesulfonamide diethylamine salt]",> 7250 nM
3,CC(C)Oc1ccc(F)cc1Oc1ccc(S(=O)(=O)Nc2ncns2)cc1C#N [compound 262],3580 nM
4,"Cc1cc(F)ccc1Oc1ccc(S(=O)(=O)Nc2ncns2)cc1C#N [Example 39, 3-cyano-4-(4-fluoro-2-methylphenoxy)-N-(1,2,4-thiadiazol-5-yl)benzenesulfonamide]",994 nM
5,N#Cc1ccc(Oc2ccc(S(=O)(=O)Nc3ncns3)cc2Cl)cc1Cl [compound 210],1610 nM
6,N#Cc1cc(Oc2c(F)cc(S(=O)(=O)Nc3ncns3)cc2F)ccc1F [compound 205],> 6810 nM
7,N#Cc1cc(S(=O)(=O)Nc2nccs2)ccc1Oc1ccc(Br)cc1F [compound 170],> 1260 nM
8,"O=S(=O)(Nc1nccs1)c1ccc(Oc2ncncc2Br)c(F)c1 [Example 83, 4-[(5-bromopyrimidin-4-yl)oxy]-3-fluoro-N-(1,3-thiazol-2-yl)benzenesulfonamide]",1140 nM
9,"N#Cc1cc(S(=O)(=O)Nc2ncc(F)s2)ccc1Oc1cccc(C(F)(F)F)c1 [Example 133, 3-cyano-N-(5-fluoro-1,3-thiazol-2-yl)-4-[3-(trifluoromethyl)phenoxy]benzenesulfonamide]",1580 nM
10,"CCc1cc(F)ccc1Oc1ccc(S(=O)(=O)Nc2ncns2)cc1I [Example 3, 4-(2-ethyl-4-fluorophenoxy)-3-iodo-N-(1,2,4-thiadiazol-5-yl)benzenesulfonamide]",69 nM
11,"N#Cc1cc(S(=O)(=O)Nc2ncns2)ccc1Oc1cccc(C(F)(F)F)c1 [Example 54, 3-cyano-N-(1,2,4-thiadiazol-5-yl)-4-[3-(trifluoromethyl)phenoxy]benzene sulfonamide]",2850 nM
12,N#Cc1cc(S(=O)(=O)Nc2nccs2)ccc1Oc1ccc(I)cc1 [compound 165],505 nM
13,"N#Cc1cc(S(=O)(=O)Nc2nncs2)ccc1Oc1ccc(CO)c(Cl)c1 [Example 341, 4-[3-chloro-4-(hydroxymethyl)phenoxy]-3-cyano-N-(1,3,4-thiadiazol-2-yl)benzenesulfonamide]",9 nM
14,COc1c(Oc2cc(F)c(S(=O)(=O)Nc3nncs3)cc2Cl)ccc(F)c1C [compound 319],> 1710 nM
15,Cc1cc(S(=O)(=O)Nc2nncs2)c(F)cc1Oc1ccc(F)c(F)c1 [compound 200],> 10000 nM
16,"N#Cc1cc(S(=O)(=O)Nc2ncc(F)s2)ccc1Oc1cc(F)cc(F)c1 [Example 106, 3-cyano-4-(3,5-difluorophenoxy)-N-(5-fluoro-1,3-thiazol-2-yl)benzenesulfonamide]",> 1340 nM
17,"Cc1ccc(F)cc1Oc1ccc(S(=O)(=O)Nc2ncns2)cc1C#N [Example 41, 3-cyano-4-(5-fluoro-2-methylphenoxy)-N-(1,2,4-thiadiazol-5-yl)benzenesulfonamide]",1350 nM
18,N#Cc1cc(Oc2ccc(S(=O)(=O)Nc3cscn3)c(Cl)c2)ccc1F [compound 236],> 10000 nM
19,N#Cc1cc(S(=O)(=O)Nc2nncs2)ccc1Oc1ccc(F)c(F)c1 [compound 201],651 nM
20,N#Cc1ccc(Oc2ccc(S(=O)(=O)Nc3ncns3)cc2C#N)cc1Cl [compound 218],> 1660 nM
21,COc1cc(F)cc(Oc2ccc(S(=O)(=O)Nc3ncns3)cc2C#N)c1 [compound 289],479 nM
22,N#Cc1cc(Oc2ccc(S(=O)(=O)Nc3cscn3)c(F)c2)ccc1F [compound 233],> 10000 nM
23,"COc1cc(OC(F)(F)F)ccc1Oc1ccc(S(=O)(=O)Nc2ncns2)cc1C#N [Example 27, 3-cyano-4-[2-methoxy-4-(trifluoromethoxy)phenoxy]-N-(1,2,4-thiadiazol-5-yl)benzenesulfonamide diethylamine salt]",> 10000 nM
24,"Cc1nocc1NS(=O)(=O)c1ccc(Oc2ccc(C#N)c(Cl)c2)c(C#N)c1 [Example 76, 4-(3-chloro-4-cyanophenoxy)-3-cyano-N-(3-methyl-1,2-oxazol-4-yl)benzenesulfonamide]",93 nM
25,"Cc1ccncc1Oc1ccc(S(=O)(=O)Nc2ncns2)cc1C#N [compound 272, trifluoroacetic acid salt]",> 4320 nM
26,N#Cc1cc(Oc2cc(F)c(S(=O)(=O)Nc3nncs3)cc2F)ccc1F [compound 217],> 10000 nM
27,"COc1ccncc1Oc1ccc(S(=O)(=O)Nc2ncns2)cc1C#N [Example 18, 3-cyano-4-[(4-methoxypyridin-3-yl)oxy]-N-(1,2,4-thiadiazol-5-yl)benzenesulfonamide]",> 10000 nM

row,Molecule,IC50
1,"N#Cc1cc(S(=O)(=O)Nc2ncc(F)s2)ccc1Oc1cc(F)cc(C(F)(F)F)c1 [Example 139, 3-cyano-N-(5-fluoro-1,3-thiazol-2-yl)-4-[3-fluoro-5-(trifluoromethyl)phenoxy]benzenesulfonamide]",3380 nM
2,"Cc1ccc(Oc2ccc(S(=O)(=O)Nc3ncc(F)s3)cc2C#N)c(Cl)c1 [Example 124, 4-(2-chloro-4-methylphenoxy)-3-cyano-N-(5-fluoro-1,3-thiazol-2-yl)benzenesulfonamide]",> 6360 nM
3,N#Cc1cc(Oc2ccc(S(=O)(=O)Nc3ncns3)cc2Cl)ccc1F [compound 207],747 nM
4,"CCc1ncccc1Oc1ccc(S(=O)(=O)Nc2ncns2)cc1C#N [compound 273, trifluoroacetic acid salt]",> 10000 nM
5,"N#Cc1cc(S(=O)(=O)Nc2ncc(F)s2)ccc1Oc1c(F)cccc1Cl [Example 125, 4-(2-chloro-6-fluorophenoxy)-3-cyano-N-(5-fluoro-1,3-thiazol-2-yl)benzenesulfonamide]",551 nM
6,N#Cc1cc(S(=O)(=O)Nc2nncs2)ccc1Oc1cnc(OC(F)F)c(Cl)c1 [Example 334],2030 nM
7,"CC(C)c1cccc(Oc2ccc(S(=O)(=O)Nc3nccs3)c(F)c2)c1 [Example 73, 2-fluoro-4-[3-(propan-2-yl)phenoxy]-N-(1,3-thiazol-2-yl)benzenesulfonamide]",> 10000 nM
8,"N#Cc1cc(S(=O)(=O)Nc2cscn2)ccc1Oc1ccc(Cl)cc1OC(F)F [Example 148, 4-[4-chloro-2-(difluoromethoxy)phenoxy]-3-cyano-N-(1,3-thiazol-4-yl)benzenesulfonamide]",118 nM
9,"N#Cc1cc(Oc2ccc(S(=O)(=O)Nc3ncc(F)s3)cc2C#N)ccc1F [Example 245, 3-cyano-4-(3-cyano-4-fluorophenoxy)-N-(5-fluoro-1,3-thiazol-2-yl)benzenesulfonamide]",2000 nM
10,"Cc1cc(Oc2ccc(S(=O)(=O)Nc3nccs3)cc2F)ccc1F [Example 74, 3-fluoro-4-(4-fluoro-3-methylphenoxy)-N-(1,3-thiazol-2-yl)benzenesulfonamide]",> 3440 nM
11,O=S(=O)(Nc1cscn1)c1ccc(Oc2ccc(F)c(F)c2)c(I)c1 [compound 241],> 10000 nM
12,"N#Cc1cc(S(=O)(=O)Nc2ncns2)ccc1Oc1cc(C(F)(F)F)ccc1F [Example 44, 3-cyano-4-[2-fluoro-5-(trifluoromethyl)phenoxy]-N-(1,2,4-thiadiazol-5-yl)benzenesulfonamide]",4330 nM
13,"CCc1cc(Oc2ccc(S(=O)(=O)Nc3ncc(F)s3)cc2C#N)ccc1Cl [Example 142, 4-(4-chloro-3-ethylphenoxy)-3-cyano-N-(5-fluoro-1,3-thiazol-2-yl)benzenesulfonamide]",540 nM
14,"N#Cc1ccc(Oc2ccc(S(=O)(=O)Nc3ncns3)cc2C#N)c(OC(F)F)c1 [Example 23, 3-cyano-4-[4-cyano-2-(difluoromethoxy)phenoxy]-N-(1,2,4-thiadiazol-5-yl)benzenesulfonamide]",> 10000 nM
15,COc1ccc(C)c(Oc2cc(F)c(S(=O)(=O)Nc3nncs3)cc2Cl)c1 [compound 327],619 nM
16,"COc1cc(Cl)ccc1Oc1ccc(S(=O)(=O)Nc2cscn2)c(OC)c1 [Example 79, 4-(4-chloro-2-methoxyphenoxy)-2-methoxy-N-(1,3-thiazol-4-yl)benzenesulfonamide diethylamine salt]",> 10000 nM
17,"CCc1nc(C)ccc1Oc1ccc(S(=O)(=O)Nc2ncns2)cc1C#N [compound 276, trifluoroacetic acid salt]",> 10000 nM
18,"N#Cc1cc(S(=O)(=O)Nc2ncc(F)s2)ccc1Oc1ccc(Cl)cc1OC(F)(F)F [Example 91, 4-[4-chloro-2-(trifluoromethoxy)phenoxy]-3-cyano-N-(5-fluoro-1,3-thiazol-2-yl)benzenesulfonamide]",2630 nM
19,N#Cc1ccc(Oc2cc(F)c(S(=O)(=O)Nc3cscn3)cc2Cl)cc1Cl [compound 239],> 10000 nM
20,"COc1ccc(C(F)(F)F)cc1Oc1ccc(S(=O)(=O)Nc2ncns2)cc1C#N [Example 29, 3-cyano-4-[2-methoxy-5-(trifluoromethyl)phenoxy]-N-(1,2,4-thiadiazol-5-yl)benzenesulfonamide diethylamine salt]",> 6080 nM
21,N#Cc1ccc(Oc2ccc(S(=O)(=O)Nc3cscn3)c(Cl)c2)cc1Cl [compound 227],> 10000 nM
22,COc1ccc(Oc2ccc(S(=O)(=O)Nc3ncns3)cc2C#N)c(C)c1 [compound 256],> 4820 nM
23,N#Cc1cc(S(=O)(=O)Nc2ncns2)ccc1Oc1ccc(F)cc1 [compound 294],888 nM
24,COc1ccc(F)c(Oc2ccc(S(=O)(=O)Nc3ncns3)cc2C#N)c1 [compound 287],1440 nM
25,COc1ccc(F)c(Oc2ccc(S(=O)(=O)Nc3ncns3)cc2C#N)c1F [compound 282],1660 nM
26,COc1cccc(Cl)c1Oc1ccc(S(=O)(=O)Nc2ncns2)cc1C#N [compound 263],2250 nM

# Same assay, conditions: inhibition of [14C]-uric acid (30 nM) uptake into CHO#8 cells; compound 0 to 10 μM; 4 parameter logistic fit
row,Molecule,IC50
1,"3-chloro-4-(4-chlorophenoxy)-N-(1,2,4-thiadiazol-5-yl)benzenesulfonamide diethylamine salt [Example 62]",722 nM
